From patent US12435059B2, “AMP-activated protein kinase inhibitors and methods of making and using the same” (The Regents of the University of Colorado, priority 2019, dated 2025)
Like-named read-outs stand apart in the source and are kept apart here.

Legend:
Assay in all cases: biochemical
Type in all cases: binding
468 kinases [1] = molecular target: 468 kinases (Homo sapiens, UniProt O75747); details: PIK3C2G; read-out: % Inhibition @ 100 nM
468 kinases [2] = molecular target: 468 kinases (Homo sapiens, UniProt Q96PN8); details: TSSK3; read-out: % Inhibition @ 100 nM
468 kinases [3] = molecular target: 468 kinases (Homo sapiens, UniProt P78368); details: CSNK1G2; read-out: % Inhibition @ 100 nM
468 kinases [4] = molecular target: 468 kinases (Homo sapiens, UniProt P53671); details: LIMK2; read-out: % Inhibition @ 100 nM
468 kinases [5] = molecular target: 468 kinases (Homo sapiens, UniProt Q13464); details: ROCK1; read-out: % Inhibition @ 100 nM
468 kinases [6] = molecular target: 468 kinases (Homo sapiens, UniProt P42681); details: TXK; read-out: % Inhibition @ 100 nM
468 kinases [7] = molecular target: 468 kinases (Homo sapiens, UniProt Q15375); details: EPHA7; read-out: % Inhibition @ 100 nM
468 kinases [8] = molecular target: 468 kinases (Homo sapiens, UniProt P00519, F317L); details: read-out: % Inhibition @ 100 nM
468 kinases [9] = molecular target: 468 kinases (Homo sapiens, UniProt Q8IW41); details: MAPKAPK5; read-out: % Inhibition @ 100 nM
468 kinases [10] = molecular target: 468 kinases (Homo sapiens, UniProt Q15831); details: LKB1; read-out: % Inhibition @ 100 nM
468 kinases [11] = molecular target: 468 kinases (Homo sapiens, UniProt Q8N568); details: DCAMKL2; read-out: % Inhibition @ 100 nM
468 kinases [12] = molecular target: 468 kinases (Homo sapiens, UniProt O95747); details: OSR1; read-out: % Inhibition @ 100 nM
468 kinases [13] = molecular target: 468 kinases (Homo sapiens, UniProt Q9NRP7); details: STK36; read-out: % Inhibition @ 100 nM
468 kinases [14] = molecular target: 468 kinases (Homo sapiens, UniProt P42336, C420R); details: PIK3CA(C420R); read-out: % Inhibition @ 100 nM
468 kinases [15] = molecular target: 468 kinases (Homo sapiens, UniProt P49840); details: GSK3A; read-out: % Inhibition @ 100 nM
468 kinases [16] = molecular target: 468 kinases (Homo sapiens, UniProt Q13555); details: CAMK2G; read-out: % Inhibition @ 100 nM
468 kinases [17] = molecular target: 468 kinases (Homo sapiens, UniProt Q13554); details: CAMK2B; read-out: % Inhibition @ 100 nM
468 kinases [18] = molecular target: 468 kinases (Homo sapiens, UniProt P07332); details: FES; read-out: % Inhibition @ 100 nM
468 kinases [19] = molecular target: 468 kinases (Homo sapiens, UniProt Q9H2X6); details: HIPK2; read-out: % Inhibition @ 100 nM
468 kinases [20] = molecular target: 468 kinases (Homo sapiens, UniProt Q96BR1); details: SGK3; read-out: % Inhibition @ 100 nM
468 kinases [21] = molecular target: 468 kinases (Homo sapiens, UniProt O75716); details: STK16; read-out: % Inhibition @ 100 nM
468 kinases [22] = molecular target: 468 kinases (Homo sapiens, UniProt P29376); details: LTK; read-out: % Inhibition @ 100 nM
468 kinases [23] = molecular target: 468 kinases (Homo sapiens, UniProt P29323); details: EPHB2; read-out: % Inhibition @ 100 nM
468 kinases [24] = molecular target: 468 kinases (Homo sapiens, UniProt P07948); details: LYN; read-out: % Inhibition @ 100 nM
468 kinases [25] = molecular target: 468 kinases (Homo sapiens, UniProt P43405); details: SYK; read-out: % Inhibition @ 100 nM
468 kinases [26] = molecular target: 468 kinases (Homo sapiens, UniProt P50613); details: CDK7; read-out: % Inhibition @ 100 nM
468 kinases [27] = molecular target: 468 kinases (Homo sapiens, UniProt P10721, A829P); details: KIT(A829P); read-out: % Inhibition @ 100 nM
468 kinases [28] = molecular target: 468 kinases (Homo sapiens, UniProt P22694); details: PKAC-beta; read-out: % Inhibition @ 100 nM
468 kinases [29] = molecular target: 468 kinases (Homo sapiens, UniProt Q9HAZ1); details: CLK4; read-out: % Inhibition @ 100 nM
468 kinases [30] = molecular target: 468 kinases (Homo sapiens, UniProt P53779); details: JNK3; read-out: % Inhibition @ 100 nM
468 kinases [31] = molecular target: 468 kinases (Homo sapiens, UniProt Q9NSY1); details: BIKE; read-out: % Inhibition @ 100 nM
468 kinases [32] = molecular target: 468 kinases (Homo sapiens, UniProt P19525); details: PRKR; read-out: % Inhibition @ 100 nM
468 kinases [33] = molecular target: 468 kinases (Homo sapiens, UniProt Q9UQB9); details: AURKC; read-out: % Inhibition @ 100 nM

468 kinases (Homo sapiens, UniProt P29376), sequence (P29376 17-864 limits assumed): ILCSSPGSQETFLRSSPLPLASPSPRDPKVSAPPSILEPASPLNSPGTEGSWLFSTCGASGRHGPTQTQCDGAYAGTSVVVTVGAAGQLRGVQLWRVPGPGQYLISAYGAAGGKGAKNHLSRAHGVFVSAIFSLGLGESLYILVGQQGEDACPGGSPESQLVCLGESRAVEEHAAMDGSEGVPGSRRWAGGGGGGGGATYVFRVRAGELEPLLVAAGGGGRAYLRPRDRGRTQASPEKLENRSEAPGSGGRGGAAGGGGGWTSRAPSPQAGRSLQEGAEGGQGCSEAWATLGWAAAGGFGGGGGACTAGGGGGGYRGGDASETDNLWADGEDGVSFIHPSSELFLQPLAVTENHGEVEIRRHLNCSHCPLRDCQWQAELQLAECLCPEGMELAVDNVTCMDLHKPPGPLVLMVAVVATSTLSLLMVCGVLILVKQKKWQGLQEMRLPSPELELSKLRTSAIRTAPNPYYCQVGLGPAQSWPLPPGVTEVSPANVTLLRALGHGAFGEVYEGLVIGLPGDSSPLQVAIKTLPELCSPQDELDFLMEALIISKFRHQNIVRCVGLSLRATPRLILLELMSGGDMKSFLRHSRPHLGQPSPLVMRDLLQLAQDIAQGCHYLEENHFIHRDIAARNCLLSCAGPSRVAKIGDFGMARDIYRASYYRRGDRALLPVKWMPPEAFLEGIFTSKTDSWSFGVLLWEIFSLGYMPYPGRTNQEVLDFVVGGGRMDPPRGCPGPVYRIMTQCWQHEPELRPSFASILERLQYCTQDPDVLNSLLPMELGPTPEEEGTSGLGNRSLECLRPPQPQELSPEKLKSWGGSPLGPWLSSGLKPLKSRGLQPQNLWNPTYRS
468 kinases (Homo sapiens, UniProt Q13464), sequence (Q13464 2-1354 limits assumed): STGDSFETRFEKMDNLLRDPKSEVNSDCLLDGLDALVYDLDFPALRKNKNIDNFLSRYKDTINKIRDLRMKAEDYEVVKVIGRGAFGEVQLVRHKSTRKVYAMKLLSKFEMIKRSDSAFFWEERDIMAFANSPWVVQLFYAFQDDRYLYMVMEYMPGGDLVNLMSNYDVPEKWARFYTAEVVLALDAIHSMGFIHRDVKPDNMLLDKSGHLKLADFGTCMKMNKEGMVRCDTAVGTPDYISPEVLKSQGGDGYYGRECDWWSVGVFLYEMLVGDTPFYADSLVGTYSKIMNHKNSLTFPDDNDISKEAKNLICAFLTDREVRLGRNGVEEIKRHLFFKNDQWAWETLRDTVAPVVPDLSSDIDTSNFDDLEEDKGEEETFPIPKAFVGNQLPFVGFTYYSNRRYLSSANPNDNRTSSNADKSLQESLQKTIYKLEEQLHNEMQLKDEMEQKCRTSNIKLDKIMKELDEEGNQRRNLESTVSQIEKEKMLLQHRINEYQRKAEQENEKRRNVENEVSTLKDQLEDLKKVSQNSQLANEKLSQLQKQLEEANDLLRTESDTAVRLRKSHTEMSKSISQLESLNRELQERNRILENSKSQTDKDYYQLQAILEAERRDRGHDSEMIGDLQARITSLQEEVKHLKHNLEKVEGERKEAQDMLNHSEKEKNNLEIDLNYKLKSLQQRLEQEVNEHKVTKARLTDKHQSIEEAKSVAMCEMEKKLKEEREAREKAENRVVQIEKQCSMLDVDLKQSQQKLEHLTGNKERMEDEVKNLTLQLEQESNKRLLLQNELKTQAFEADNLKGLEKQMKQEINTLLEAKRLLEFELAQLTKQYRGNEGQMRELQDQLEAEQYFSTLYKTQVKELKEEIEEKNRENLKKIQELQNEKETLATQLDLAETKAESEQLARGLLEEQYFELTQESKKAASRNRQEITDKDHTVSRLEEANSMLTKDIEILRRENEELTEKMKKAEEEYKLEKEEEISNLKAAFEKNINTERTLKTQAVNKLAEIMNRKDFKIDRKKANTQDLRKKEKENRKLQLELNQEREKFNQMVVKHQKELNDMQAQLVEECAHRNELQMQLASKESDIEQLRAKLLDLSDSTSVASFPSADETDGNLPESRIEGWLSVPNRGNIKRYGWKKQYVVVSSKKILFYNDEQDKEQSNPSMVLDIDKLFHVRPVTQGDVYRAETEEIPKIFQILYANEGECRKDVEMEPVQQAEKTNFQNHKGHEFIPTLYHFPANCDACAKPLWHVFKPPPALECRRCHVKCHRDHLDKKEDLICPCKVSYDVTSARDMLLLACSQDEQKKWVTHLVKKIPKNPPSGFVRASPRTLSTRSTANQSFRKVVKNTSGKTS
468 kinases (Homo sapiens, UniProt P49840), sequence (P49840 2-483 limits assumed): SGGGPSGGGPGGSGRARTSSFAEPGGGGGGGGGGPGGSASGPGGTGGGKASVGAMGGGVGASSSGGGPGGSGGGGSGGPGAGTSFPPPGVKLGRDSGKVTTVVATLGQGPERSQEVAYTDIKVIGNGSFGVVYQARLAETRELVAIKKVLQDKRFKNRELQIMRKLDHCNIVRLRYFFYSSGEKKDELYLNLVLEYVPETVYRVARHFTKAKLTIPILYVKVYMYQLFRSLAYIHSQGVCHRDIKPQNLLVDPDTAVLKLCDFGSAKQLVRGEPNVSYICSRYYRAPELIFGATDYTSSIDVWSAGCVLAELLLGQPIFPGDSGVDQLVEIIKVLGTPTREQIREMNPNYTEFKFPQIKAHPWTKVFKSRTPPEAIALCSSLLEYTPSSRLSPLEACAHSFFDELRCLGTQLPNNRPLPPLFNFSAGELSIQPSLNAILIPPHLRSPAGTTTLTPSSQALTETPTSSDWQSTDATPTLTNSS
468 kinases (Homo sapiens, UniProt Q15375), sequence (Q15375 28-998 limits assumed): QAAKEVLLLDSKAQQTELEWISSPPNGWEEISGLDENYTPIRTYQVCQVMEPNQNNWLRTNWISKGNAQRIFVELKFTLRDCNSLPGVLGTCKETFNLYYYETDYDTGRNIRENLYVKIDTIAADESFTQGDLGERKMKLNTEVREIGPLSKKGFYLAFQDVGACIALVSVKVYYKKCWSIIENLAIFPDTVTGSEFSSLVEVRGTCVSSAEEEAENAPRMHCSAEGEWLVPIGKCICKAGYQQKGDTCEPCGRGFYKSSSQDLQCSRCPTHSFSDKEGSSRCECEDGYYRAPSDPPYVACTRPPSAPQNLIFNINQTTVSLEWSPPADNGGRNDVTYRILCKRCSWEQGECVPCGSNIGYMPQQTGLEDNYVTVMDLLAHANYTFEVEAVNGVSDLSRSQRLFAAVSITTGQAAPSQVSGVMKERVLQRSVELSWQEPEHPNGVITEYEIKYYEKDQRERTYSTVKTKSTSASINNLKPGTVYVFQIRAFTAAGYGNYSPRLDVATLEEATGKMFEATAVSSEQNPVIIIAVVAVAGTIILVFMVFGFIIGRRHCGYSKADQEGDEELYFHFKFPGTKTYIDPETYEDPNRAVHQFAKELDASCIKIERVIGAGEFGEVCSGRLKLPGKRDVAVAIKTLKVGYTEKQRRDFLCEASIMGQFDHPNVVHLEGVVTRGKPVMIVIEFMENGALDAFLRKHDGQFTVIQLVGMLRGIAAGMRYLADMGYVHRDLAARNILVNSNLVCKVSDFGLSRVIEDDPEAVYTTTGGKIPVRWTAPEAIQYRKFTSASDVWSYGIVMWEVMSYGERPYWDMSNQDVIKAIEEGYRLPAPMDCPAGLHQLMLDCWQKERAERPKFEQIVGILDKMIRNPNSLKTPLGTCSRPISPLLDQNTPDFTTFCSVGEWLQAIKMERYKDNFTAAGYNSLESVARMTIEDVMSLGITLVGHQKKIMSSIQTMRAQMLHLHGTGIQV
468 kinases (Homo sapiens, UniProt P07948), sequence (P07948 2-512 limits assumed): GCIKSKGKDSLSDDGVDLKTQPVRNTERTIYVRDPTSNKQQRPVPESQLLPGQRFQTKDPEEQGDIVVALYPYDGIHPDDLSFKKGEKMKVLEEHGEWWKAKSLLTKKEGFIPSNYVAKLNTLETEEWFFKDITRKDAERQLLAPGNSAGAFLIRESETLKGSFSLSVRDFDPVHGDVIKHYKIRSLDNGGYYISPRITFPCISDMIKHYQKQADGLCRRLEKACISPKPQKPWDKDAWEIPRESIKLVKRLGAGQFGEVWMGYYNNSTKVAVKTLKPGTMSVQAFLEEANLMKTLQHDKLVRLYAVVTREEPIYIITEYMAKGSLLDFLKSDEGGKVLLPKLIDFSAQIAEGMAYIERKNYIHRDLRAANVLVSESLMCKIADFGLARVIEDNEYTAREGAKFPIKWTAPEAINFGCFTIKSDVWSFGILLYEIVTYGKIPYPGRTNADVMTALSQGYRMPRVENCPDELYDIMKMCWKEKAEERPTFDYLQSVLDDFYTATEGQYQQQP
468 kinases (Homo sapiens, UniProt P19525), sequence (P19525 2-551 limits assumed): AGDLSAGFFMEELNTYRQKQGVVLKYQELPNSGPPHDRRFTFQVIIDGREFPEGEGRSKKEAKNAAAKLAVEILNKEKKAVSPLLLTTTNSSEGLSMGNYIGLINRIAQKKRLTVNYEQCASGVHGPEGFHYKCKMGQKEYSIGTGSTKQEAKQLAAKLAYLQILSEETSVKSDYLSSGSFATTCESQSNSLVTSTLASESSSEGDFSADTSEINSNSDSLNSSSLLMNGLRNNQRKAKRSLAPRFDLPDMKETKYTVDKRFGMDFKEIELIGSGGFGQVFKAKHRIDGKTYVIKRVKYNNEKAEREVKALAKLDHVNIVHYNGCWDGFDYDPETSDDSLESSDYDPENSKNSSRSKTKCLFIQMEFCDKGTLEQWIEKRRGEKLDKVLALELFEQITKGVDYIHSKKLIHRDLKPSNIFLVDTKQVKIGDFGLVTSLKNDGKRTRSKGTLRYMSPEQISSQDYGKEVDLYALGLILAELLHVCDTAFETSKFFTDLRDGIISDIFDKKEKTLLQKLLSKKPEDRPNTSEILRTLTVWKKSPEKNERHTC
468 kinases (Homo sapiens, UniProt O75716), sequence (O75716 2-305 limits assumed): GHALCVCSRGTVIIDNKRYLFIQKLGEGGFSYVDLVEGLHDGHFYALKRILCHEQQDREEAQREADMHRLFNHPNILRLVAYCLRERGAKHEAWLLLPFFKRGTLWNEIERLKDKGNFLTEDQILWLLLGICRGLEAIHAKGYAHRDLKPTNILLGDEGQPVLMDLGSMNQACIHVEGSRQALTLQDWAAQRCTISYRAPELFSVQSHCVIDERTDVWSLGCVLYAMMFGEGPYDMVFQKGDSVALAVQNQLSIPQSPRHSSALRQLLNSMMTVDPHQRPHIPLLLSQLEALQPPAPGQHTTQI

Compound | inhibition at 0.1 µM (468 kinases [1]) [%] | inhibition at 0.1 µM (468 kinases [2]) [%] | inhibition at 0.1 µM (468 kinases [3]) [%] | inhibition at 0.1 µM (468 kinases [4]) [%] | inhibition at 0.1 µM (468 kinases [5]) [%] | inhibition at 0.1 µM (468 kinases [6]) [%] | inhibition at 0.1 µM (468 kinases [7]) [%] | inhibition at 0.1 µM (468 kinases [8]; ABL1 (F317L)-phosphorylated) [%] | inhibition at 0.1 µM (468 kinases [9]) [%] | inhibition at 0.1 µM (468 kinases [10]) [%] | inhibition at 0.1 µM (468 kinases [11]) [%] | inhibition at 0.1 µM (468 kinases [12]) [%] | inhibition at 0.1 µM (468 kinases [13]) [%] | inhibition at 0.1 µM (468 kinases [14]) [%] | inhibition at 0.1 µM (468 kinases [15]) [%] | inhibition at 0.1 µM (468 kinases [16]) [%] | inhibition at 0.1 µM (468 kinases [17]) [%] | inhibition at 0.1 µM (468 kinases [18]) [%] | inhibition at 0.1 µM (468 kinases [19]) [%] | inhibition at 0.1 µM (468 kinases [20]) [%] | other results
CCN(CC)CCNC(=O)c1c(C)[nH]c(/C=C2\C(=O)Nc3ccc(CCC(N)=O)cc32)c1C [Compound No. 16, (Z)-5-((5-(3-Amino-3-oxopropyl)-2-oxoindolin-3-ylidene)methyl)-N-(2-(diethylamino)ethyl)-2,4-dimethyl-1H-pyrrole-3-carboxamide] | 4 | 5 | 3 | 17 | 53 | 16 | 1 | 20 | 28 | 16 | 3 | 47 | 0 | 31 | 10 | 18 | 10 | 0 | 99.5 | 26 | inhibition at 0.1 µM (468 kinases [21]): 6%; inhibition at 0.1 µM (468 kinases [22]): 0%; inhibition at 0.1 µM (468 kinases [23]): 10%; inhibition at 0.1 µM (468 kinases [24]): 9%; inhibition at 0.1 µM (468 kinases [25]): 0%; inhibition at 0.1 µM (468 kinases [26]): 80%; inhibition at 0.1 µM (468 kinases [27]): 35%; inhibition at 0.1 µM (468 kinases [28]): 13%; inhibition at 0.1 µM (468 kinases [29]): 96.2%; inhibition at 0.1 µM (468 kinases [30]): 55%; inhibition at 0.1 µM (468 kinases [31]): 93.6%; inhibition at 0.1 µM (468 kinases [32]): 29%; inhibition at 0.1 µM (468 kinases [33]): 98.4%
CCN(CC)CCNC(=O)c1c(C)[nH]c(/C=C2\C(=O)Nc3ccc(CCO)cc32)c1C [Compound No. 10, (Z)—N-(2-(Diethylamino)ethyl)-5-((5-(2-hydroxyethyl)-2-oxoindolin-3-ylidene)methyl)-2,4-dimethyl-1H-pyrrole-3-carboxamide] | 19 | 4 | 0 | 0 | 4 | 10 | 0 | 22 | 0 | 31 | 0 | 0 | 0 | 0 | 3 | 8 | 0 | 20 | 58 | 0 | inhibition at 0.1 µM (468 kinases [8]; ABL1 (F317L)-nonphosphorylated): 6%; inhibition at 0.1 µM (468 kinases [21]): 0%; inhibition at 0.1 µM (468 kinases [22]): 8%; inhibition at 0.1 µM (468 kinases [23]): 3%; inhibition at 0.1 µM (468 kinases [24]): 6%; inhibition at 0.1 µM (468 kinases [25]): 16%; inhibition at 0.1 µM (468 kinases [26]): 86%; inhibition at 0.1 µM (468 kinases [27]): 0%; inhibition at 0.1 µM (468 kinases [28]): 0%; inhibition at 0.1 µM (468 kinases [29]): 95.5%; inhibition at 0.1 µM (468 kinases [30]): 0%; inhibition at 0.1 µM (468 kinases [31]): 97.4%; inhibition at 0.1 µM (468 kinases [32]): 2%; inhibition at 0.1 µM (468 kinases [33]): 40%
